According to patent publication US20150374689A1, “Use of Levosimendan to Treat Left Ventricular Systolic Dysfunction in Patients Undergoing Cardiac Surgery Requiring Cardiopulmonary Bypass” (TENAX Therapeutics, Inc., priority 2014, published 2015):

Columns and labels:
[1] = test system: patients with left ventricular systolic dysfunction undergoing cardiac surgery requiring cardiopulmonary bypass; assay: Double-blind, randomized, placebo-controlled clinical trial of levosimendan (Example 1); format: in vivo, human
Procedure: A randomized, double-blind, placebo-controlled, multicenter study of levosimendan is conducted in subjects with pre-existing left ventricular systolic dysfunction (documented (i) LVEF≦25% in CABG surgery patients, or (ii) LVEF≦35% in CABG with aortic valve surgery patients, CABG with mitral valve surgery patients, or isolated mitral valve surgery patients) with or without heart failure (NYHA functional Class I-IV), undergoing (1) CABG surgery, (2) CABG with aortic valve surgery, (3) CABG with mitral valve surgery, or (4) isolated mitral valve surgery.
All patients are randomized with planned CPB. Approximately 760 subjects are enrolled in the study. Subjects are randomly assigned to receive either levosimendan or a matching placebo in a 1:1 ratio. The study is divided into a screening phase, a double-blind treatment phase, a double-blind post-treatment and follow-up phase from hospital discharge through Day 30. Day 0 is the day of study drug (levosimendan or matching placebo) initiation. All randomly assigned subjects are followed for 90 days, including subjects who were randomly assigned to treatment but not treated.
In the double-blind treatment phase, every attempt is made to start treatment with study drug as soon as possible prior to surgery. However, in all cases study drug is initiated after arterial line insertion and before skin incision. If a Swan-Ganz catheter is planned, it is preferable to insert it prior to study drug initiation. Study drug is administered as described below. Subjects who were randomly assigned to treatment but not treated will be followed (a) through Day 5 for perioperative MI and the need for IABP/LVAD/ECMO, (b) through postoperative […] for postoperative MI (Day 6-10) and postoperative dialysis, and (c) the occurrence of all-cause mortality through Day 90. All subjects may receive additional standard of care medications including inotropes, vasopressors, vasopressin, antiarrhythmics, diuretics, nitrates, and/or nitric oxide as needed. Due to the potential hypotensive effects of the study drug, the concomitant use of vasodilatory drugs should be used with caution.
Subjects are assigned to 1 of 2 treatment groups (levosimendan 0.2 μg/kg/min for first hour, followed by 0.1 μg/kg/min for the next 23 hours or matching placebo) in a 1:1 ratio based on a computer-generated randomization schedule prepared before the start of the study by an independent statistical group not otherwise involved in the conduct or analysis of the study.
The concentration of the diluted infusion is about 50 μg/mL in 5% dextrose (12.5 mg/255 mL in a 250 mL bag; 25 mg/510 mL, 2 vials in a 500 mL bag). The i.v. tubing is primed to fill the volume to the i.v. entry site before starting the infusion. The diluted infusion is administered intravenously by a peripheral or central route. No other treatments are administered via the same line, and no bolus of study drug is administered. Study drug is infused as a continuous infusion of 0.2 μg/kg/min over the first 60 minutes. After 1 hour, the flow rate is decreased to a continuous infusion of 0.1 μg/kg/min. This dose of study drug is continued for the next 23 hours. On completion of the 24-hour infusion period, the study drug infusion is switched off abruptly.
All-cause mortality data (e.g., the cause and date of death) is collected for all subjects up to Day 30 (+5). A follow-up call documents mortality between Day 30 visit and Day 90. […]

[2] = cited from earlier work; for formation of the metabolite: patients undergoing cardiac surgery
[3] = through Day 5, same 24-hour infusion regimen

Compound | rate of all-cause death at Day 30 as compared to placebo ([1]; Day 30, same 24-hour infusion regimen) | peri- and postoperative morbidity and mortality as compared to placebo ([1]; levosimendan i.v. 0.2 μg/kg/min for first hour, then 0.1 μg/kg/min for 23 hours, started before skin incision, plus standard care) | rate of perioperative MI as compared to placebo [1, 3] | use of mechanical assist (IABP, LVAD, or ECMO) as compared to placebo [1, 3] | need for dialysis as compared to placebo ([1]; through Day 30, same 24-hour infusion regimen) | share of total dose metabolised by the minor pathway (reduction in the intestine to OR-1855) ([2]; of the total levosimendan dose) | formation of the metabolite [2] | time at which maximum concentrations are seen ([2]; after starting a 24-hour infusion, heart failure patients) | elimination half-life ([2]; heart failure patients)
CC1CC(=O)NN=C1c1ccc(NN=C(C#N)C#N)cc1 (single isomer, unassigned; (-)) [levosimendan, (−)-enantiomer of [[4-(1,4,5,6-tetrahydro-4-methyl-6-oxo-3-pyridazinyl)phenyl]hydrazono]prop anedinitrile] | smaller | reduces | smaller | reduced | lesser | approximately 6% |  |  | 
C[C@@H]1CC(=O)NN=C1c1ccc(N)cc1 [OR-1855] |  |  |  |  |  |  | delayed |  | 
CC(=O)Nc1ccc(C2=NNC(=O)C[C@H]2C)cc1 [OR-1896] |  |  |  |  |  |  | delayed | 2 to 4 days | 70 to 80 h
